Converted amounts (≈) assume the structure as drawn.
What was measured:
[1] = Inhibition of HIV-1 BH10 reverse transcriptase using poly(rA)/oligo(dT)15 as substrate after 60 mins by plate reader analysis; set-up: species or system Human immunodeficiency virus type 1 BH10
[2] = system: Human immunodeficiency virus 1; test: Antiviral activity against wild type HIV1-infected human C8166 cells after 1.5 hrs by luciferase reporter gene assay; assay type: functional, organism-based; details: Human immunodeficiency virus 1, C8166, 1.5 h
[3] = Clearance in human liver microsomes at 1 uM by LC-MS/MS analysis relative to hepatic blood flow; assay type: ADME, Microsome; details: read-out: CLH
[4] = Permeability from apical to basolateral side of human Caco2 cells; assay type: ADME, cell-based; details: Caco-2, read-out: permeability
[5] = Cytotoxicity against human C8166-LTR-Luc cells after 3 days by MTT assay; assay type: cell-based
[6] = system: Human immunodeficiency virus type 1 BH10; test: Inhibition of HIV-1 BH10 reverse transcriptase using poly(rA)/oligo(dT)15 as substrate at > 365 nM after 60 mins by plate reader analysis
[7] = Solubility of the compound in phosphate buffer at pH 6.8 after 24 hrs at 25 degC by LC-MS analysis; assay type: physicochemical
[8] = Lipophilicity, log D of the compound in n-octanol buffer at 0.5 mg after 2 to 24 hrs by LC-MS analysis; assay type: physicochemical
[9] = Solubility of the compound in phosphate buffer at pH 2.0 after 24 hrs at 25 degC by LC-MS analysis; assay type: physicochemical
[10] = system: Human immunodeficiency virus type 1 BH10; test: Inhibition of HIV-1 BH10 reverse transcriptase using poly(rA)/oligo(dT)15 as substrate at > 4700 nM after 60 mins by plate reader analysis
[11] = system: Human immunodeficiency virus type 1 BH10; test: Inhibition of HIV-1 BH10 reverse transcriptase using poly(rA)/oligo(dT)15 as substrate at > 1100 nM after 60 mins by plate reader analysis
[12] = system: Human immunodeficiency virus type 1 BH10; test: Inhibition of HIV-1 BH10 reverse transcriptase using poly(rA)/oligo(dT)15 as substrate at > 685 nM after 60 mins by plate reader analysis
[13] = Cytotoxicity against human C8166-LTR-Luc cells assessed as inhibition of cell viability at > 3.6 uM after 3 days by MTT assay; assay type: cell-based; details: read-out: INH
[14] = Clearance in rat liver microsomes at 1 uM by LC-MS/MS analysis relative to hepatic blood flow; assay type: ADME, Microsome; details: read-out: CLH

Row | Structure (SMILES) | IC50 [1] | EC50 [2] | hepatic extraction ratio at 1 µM [3] | Papp A→B [4] | CC50 at 72 h [5] | also measured
1 | CCn1c(=O)nc(-c2ccccc2)c2oc3ccc(-c4ccc(CN(C)C)cc4)cc3c21 | 890 nM |  |  |  |  | 
2 | COCCn1c(=O)nc(-c2ccccc2)c2oc3ccc(-c4ccc(CN(C)C)cc4)cc3c21 | 2330 nM |  |  |  |  | 
3 | COCCCn1c(=O)nc(-c2ccc(N3CCNCC3)cc2)c2oc3ccc(Cl)cc3c21 | 1.7 nM | 25 nM | 0.28 | 0.3 ×10⁻⁶ cm/s | 2700 nM | 
4 | CN(C)Cc1ccc(-c2ccc3oc4c(-c5ccccc5)nc(=O)n(CCCc5ccccc5)c4c3c2)cc1 | > 365 nM |  |  |  |  | inhibition [6]: 25%
5 | CCCCCn1c(=O)nc(-c2ccc(NC)nc2)c2oc3ccc(-c4cnn(C)c4)cc3c21 | 2 nM | 18 nM | 0.81 | 9.8 ×10⁻⁶ cm/s | 4000 nM | solubility at 24 h [7]: 0.27 µg/mL (≈ 0.61 µM); logD [8]: 4.7; solubility at 24 h [9]: > 1000 µg/mL
6 | CN(C)Cc1ccc(-c2ccc3oc4c(-c5ccccc5)nc(=O)n(-c5ccc([N+](=O)[O-])cc5)c4c3c2)cc1 | 1.7 nM |  |  |  |  | 
7 | COCCCn1c(=O)nc(-c2ccc(N3CCN(C(C)C)CC3)nc2)c2oc3ccc(Cl)cc3c21 | 3 nM | 37 nM | 0.59 | 2.6 ×10⁻⁶ cm/s | > 3200 nM | 
8 | CNc1ccc(-c2nc(=O)n(CCCOC)c3c2oc2ccc(-c4cnn(C)c4)cc23)cn1 | 4 nM | 148 nM | 0.5 | 1.6 ×10⁻⁶ cm/s | > 17000 nM | solubility at 24 h [7]: > 1000 µg/mL; solubility at 24 h [9]: > 1000 µg/mL
9 | Cc1ccc(-n2c(=O)nc(-c3ccccc3)c3oc4ccc(-c5ccc(CN(C)C)cc5)cc4c32)cc1C#N | 7.3 nM |  |  |  |  | 
10 | COC[C@H](C)Cn1c(=O)nc(-c2ccccc2)c2oc3ccc(-c4ccc(CN(C)C)cc4)cc3c21 | 195 nM |  |  |  |  | 
11 | CC(C)CCCn1c(=O)nc(-c2ccccc2)c2oc3ccc(-c4ccc(CN(C)C)cc4)cc3c21 | 55 nM |  |  |  |  | 
12 | CCCCn1c(=O)nc(-c2ccccc2)c2oc3ccc(-c4ccc(CN(C)C)cc4)cc3c21 | 42 nM |  |  |  |  | 
13 | CC(C)n1c(=O)nc(-c2ccccc2)c2oc3ccc(-c4ccc(CN(C)C)cc4)cc3c21 | 800 nM |  |  |  |  | 
14 | CC(C)Cn1c(=O)nc(-c2ccccc2)c2oc3ccc(-c4ccc(CN(C)C)cc4)cc3c21 | 655 nM |  |  |  |  | 
15 | CN(C)Cc1ccc(-c2ccc3oc4c(-c5ccccc5)nc(=O)n(CCCC(=O)O)c4c3c2)cc1 | > 4700 nM |  |  |  |  | inhibition [10]: 46%
16 | COCCCn1c(=O)nc(-c2ccc(N3CCN(CCOC)CC3)nc2)c2oc3ccc(Cl)cc3c21 | 8 nM | 56 nM | 0.78 | 12 ×10⁻⁶ cm/s |  | 
17 | COC[C@@H](C)Cn1c(=O)nc(-c2ccccc2)c2oc3ccc(-c4ccc(CN(C)C)cc4)cc3c21 | 635 nM |  |  |  |  | 

Row | Structure (SMILES) | IC50 [1] | EC50 [2] | hepatic extraction ratio at 1 µM [3] | Papp A→B [4] | CC50 at 72 h [5] | also measured
18 | CCOC(=O)CCCn1c(=O)nc(-c2ccccc2)c2oc3ccc(-c4ccc(CN(C)C)cc4)cc3c21 | > 1100 nM |  |  |  |  | inhibition [11]: 14%
19 | COCCCn1c(=O)nc(-c2ccccc2)c2oc3ccc(-c4ccc(CN(C)C)cc4)cc3c21 | 39 nM |  |  |  |  | 
20 | CNc1ccc(-c2nc(=O)n(CCC3CCCO3)c3c2oc2ccc(-c4cnn(C)c4)cc23)cn1 (racemic) | 1.5 nM | 13 nM | 0.61 | 3.1 ×10⁻⁶ cm/s | 3800 nM | solubility at 24 h [7]: > 984 µg/mL; logD [8]: 3.4; solubility at 24 h [9]: > 1000 µg/mL
21 | CN(C)Cc1ccc(-c2ccc3oc4c(-c5ccccc5)nc(=O)n(-c5ccccc5)c4c3c2)cc1 | 245 nM |  |  |  |  | 
22 | CNc1ccc(-c2nc(=O)n(CC[C@@H]3CCCO3)c3c2oc2ncc(-c4cnn(C)c4)cc23)cn1 |  |  |  |  |  | solubility at 24 h [7]: > 928 µg/mL; solubility at 24 h [9]: > 844 µg/mL
23 | COCCCn1c(=O)nc(-c2ccc(N3CCN(CCOC)CC3)cc2)c2oc3ccc(Cl)cc3c21 | 10 nM | 130 nM | 0.61 | 8 ×10⁻⁶ cm/s | > 4200 nM | 
24 | CC(C)CCn1c(=O)nc(-c2ccccc2)c2oc3ccc(-c4ccc(CN(C)C)cc4)cc3c21 | 190 nM |  |  |  |  | 
25 | COCCCn1c(=O)nc(-c2ccc(N3CCN(C(C)C)CC3)cc2)c2oc3ccc(Cl)cc3c21 | 9.1 nM | 35 nM | 0.51 | 2.7 ×10⁻⁶ cm/s | 2300 nM | 
26 | CN(C)Cc1ccc(-c2ccc3oc4c(-c5ccccc5)nc(=O)n(C)c4c3c2)cc1 | 645 nM |  |  |  |  | 
27 | CNc1ccc(-c2nc(=O)n(CC[C@H]3CCCO3)c3c2oc2ncc(-c4cnn(C)c4)cc23)cn1 |  |  |  |  |  | solubility at 24 h [7]: 1.2 µg/mL (≈ 2.54 µM); solubility at 24 h [9]: > 871 µg/mL
28 | CCCn1c(=O)nc(-c2ccccc2)c2oc3ccc(-c4ccc(CN(C)C)cc4)cc3c21 | > 685 nM |  |  |  |  | inhibition [12]: 45%
29 | COCCCn1c(=O)nc(-c2ccc(N3CCN(C4CC4)CC3)cc2)c2oc3ccc(Cl)cc3c21 | 13 nM | 290 nM | 0.52 | 8.9 ×10⁻⁶ cm/s | > 3600 nM | cytotoxicity at 72 h [13]: 20%
30 | COCCCn1c(=O)nc(-c2ccc(N3CCN(C)CC3)nc2)c2oc3ccc(-c4cnn(C)c4)cc3c21 | 3 nM | 6 nM | 0.67 | 0.4 ×10⁻⁶ cm/s | > 21700 nM | solubility at 24 h [7]: > 1000 µg/mL; logD [8]: 3; solubility at 24 h [9]: > 1000 µg/mL
31 | CCCCCn1c(=O)nc(-c2ccccc2)c2oc3ccc(-c4ccc(CN(C)C)cc4)cc3c21 | 27 nM |  |  |  |  | 
32 | COCCCCn1c(=O)nc(-c2ccccc2)c2oc3ccc(-c4ccc(CN(C)C)cc4)cc3c21 | 86 nM |  |  |  |  | 
33 | CCNCC(=O)Nc1ccc(-c2nc(=O)n(CCOC)c3c2oc2ccc(-c4ccc5c(c4)CCN(C)C5)cc23)cc1 | 4 nM | 30 nM | 0.29 | < 0.1 ×10⁻⁶ cm/s | 4100 nM | hepatic extraction ratio at 1 µM [14]: 0.11
34 | CCNCC(=O)Nc1ccc(-c2nc(=O)n(CCCOC)c3c2oc2ccc(Cl)cc23)cc1 | 2.8 nM | 33 nM | 0.46 | < 0.1 ×10⁻⁶ cm/s | > 8600 nM | 

— ChEMBL document CHEMBL2380228, “Nucleotide competing reverse transcriptase inhibitors: discovery of a series of non-basic benzofurano[3,2-d]pyrimidin-2-one derived inhibitors” (Bioorg Med Chem Lett, 2013)
